Test results: ChEMBL document CHEMBL2413072, “Synthesis and in vitro anticancer studies of novel C-2 arylidene congeners of lantadenes” (2013)

Legend:
Format in all cases: functional
[1] = test system: BT-549; experiment: Growth inhibition of human BT549 cells assessed as cell growth at 10^-8 M by sulforhodamine B assay; conditions: read-out: Activity
[2] = test system: SF-268; experiment: Growth inhibition of human SF268 cells assessed as cell growth at 10^-7 M by sulforhodamine B assay; conditions: read-out: Activity
[3] = test system: DU-145; experiment: Growth inhibition of human DU145 cells assessed as cell growth at 10^-4 M by sulforhodamine B assay; conditions: read-out: Activity
[4] = test system: TK-10; experiment: Growth inhibition of human TK10 cells by sulforhodamine B assay
[5] = test system: SF-539; experiment: Growth inhibition of human SF539 cells assessed as cell growth at 10^-8 M by sulforhodamine B assay; conditions: read-out: Activity
[6] = test system: OVCAR-3; experiment: Growth inhibition of human OVCAR3 cells by sulforhodamine B assay
[7] = test system: U-251; experiment: Growth inhibition of human U251 cells assessed as cell growth at 10^-4 M by sulforhodamine B assay; conditions: read-out: Activity
[8] = test system: MDA-MB-468; experiment: Growth inhibition of human MDA-MB-468 cells assessed as cell growth at 10^-8 M by sulforhodamine B assay; conditions: read-out: Activity
[9] = test system: SK-MEL-5; experiment: Growth inhibition of human SK-MEL-5 cells assessed as cell growth at 10^-8 M by sulforhodamine B assay; conditions: read-out: Activity
[10] = test system: HT-29; experiment: Growth inhibition of human HT-29 cells assessed as cell growth at 10^-7 M by sulforhodamine B assay; conditions: read-out: Activity
[11] = test system: A498; experiment: Growth inhibition of human A498 cells assessed as cell growth at 10^-6 M by sulforhodamine B assay; conditions: read-out: Activity
[12] = test system: IGROV-1; experiment: Growth inhibition of human IGROV1 cells assessed as cell growth at 10^-4 M by sulforhodamine B assay; conditions: read-out: Activity
[13] = test system: ACHN; experiment: Growth inhibition of human ACHN cells by sulforhodamine B assay
[14] = test system: 786-0; experiment: Growth inhibition of human 786-0 cells assessed as cell growth at 10^-7 M by sulforhodamine B assay; conditions: read-out: Activity
[15] = test system: LOX IMVI; experiment: Growth inhibition of human LOXIMVI cells assessed as cell growth at 10^-4 M by sulforhodamine B assay; conditions: read-out: Activity
[16] = test system: UACC-62; experiment: Growth inhibition of human UACC62 cells assessed as cell growth at 10^-8 M by sulforhodamine B assay; conditions: read-out: Activity
[17] = test system: UACC-62; experiment: Growth inhibition of human UACC62 cells assessed as cell growth at 10^-7 M by sulforhodamine B assay; conditions: read-out: Activity
[18] = test system: IGROV-1; experiment: Growth inhibition of human IGROV1 cells by sulforhodamine B assay
[19] = test system: SW-620; experiment: Growth inhibition of human SW620 cells by sulforhodamine B assay
[20] = test system: A549; experiment: Growth inhibition of human A549/ATCC cells assessed as cell growth at 10^-4 M by sulforhodamine B assay; conditions: read-out: Activity
[21] = test system: SF-268; experiment: Growth inhibition of human SF268 cells assessed as cell growth at 10^-6 M by sulforhodamine B assay; conditions: read-out: Activity
[22] = test system: T47D; experiment: Growth inhibition of human T47D cells assessed as cell growth at 10^-6 M by sulforhodamine B assay; conditions: read-out: Activity
[23] = Growth inhibition of human Hs 578T cells by sulforhodamine B assay
[24] = test system: TK-10; experiment: Growth inhibition of human TK10 cells assessed as cell growth at 10^-6 M by sulforhodamine B assay; conditions: read-out: Activity
[25] = test system: UO-31; experiment: Growth inhibition of human UO31 cells assessed as cell growth at 10^-4 M by sulforhodamine B assay; conditions: read-out: Activity
[26] = test system: ACHN; experiment: Growth inhibition of human ACHN cells assessed as cell growth at 10^-7 M by sulforhodamine B assay; conditions: read-out: Activity
[27] = test system: COLO 205; experiment: Growth inhibition of human COLO205 cells assessed as cell growth at 10^-8 M by sulforhodamine B assay; conditions: read-out: Activity
[28] = test system: UACC-257; experiment: Growth inhibition of human UACC257 cells assessed as cell growth at 10^-7 M by sulforhodamine B assay; conditions: read-out: Activity
[29] = test system: RXF 393; experiment: Growth inhibition of human RXF393 cells by sulforhodamine B assay
[30] = test system: SR; experiment: Growth inhibition of human SR cells assessed as cell growth at 10^-8 M by sulforhodamine B assay; conditions: read-out: Activity
[31] = test system: SF-295; experiment: Growth inhibition of human SF295 cells assessed as cell growth at 10^-4 M by sulforhodamine B assay; conditions: read-out: Activity
[32] = test system: LOX IMVI; experiment: Growth inhibition of human LOXIMVI cells assessed as cell growth at 10^-6 M by sulforhodamine B assay; conditions: read-out: Activity
[33] = test system: BT-549; experiment: Growth inhibition of human BT549 cells by sulforhodamine B assay
[34] = test system: SR; experiment: Growth inhibition of human SR cells assessed as cell growth at 10^-4 M by sulforhodamine B assay; conditions: read-out: Activity
[35] = test system: NCI-H460; experiment: Growth inhibition of human NCI-H460 cells assessed as cell growth at 10^-6 M by sulforhodamine B assay; conditions: read-out: Activity
[36] = test system: TK-10; experiment: Growth inhibition of human TK10 cells assessed as cell growth at 10^-7 M by sulforhodamine B assay; conditions: read-out: Activity
[37] = test system: SK-MEL-2; experiment: Growth inhibition of human SK-MEL-2 cells assessed as cell growth at 10^-7 M by sulforhodamine B assay; conditions: read-out: Activity
[38] = test system: SN12C; experiment: Growth inhibition of human SN12C cells assessed as cell growth at 10^-6 M by sulforhodamine B assay; conditions: read-out: Activity
[39] = test system: A549; experiment: Growth inhibition of human A549/ATCC cells by sulforhodamine B assay
[40] = test system: T47D; experiment: Growth inhibition of human T47D cells assessed as cell growth at 10^-7 M by sulforhodamine B assay; conditions: read-out: Activity
[41] = read-out: LC50 (the source's name)
[42] = read-out: pLC50 (the source's name) (converted)

**Q.** What does the source list for `CC(C)=CC(=O)O[C@@H]1CC(C)(C)C[C@H]2C3=CC[C@@H]4[C@@]5(C)CC[C@H](O)C(C)(C)[C@@H]5CC[C@@]4(C)[C@]3(C)CC[C@@]12C(=O)O` [Reduced Lantadene B]?
**A.** growth at 0.01 µM [1]: 97%; growth at 0.1 µM [2]: 93%; growth at 100 µM [3]: -75%; GI50 ([4]; read-out: GI50): 10.7 µM; CC50 [4, 41]: 71.6 µM; TGI ([4]; read-out: TGI): 27.7 µM; GI50 ([4]; read-out: pGI50 (converted)): 10.7 µM; CC50 [4, 42]: 70.8 µM; TGI ([4]; read-out: pTGI (converted)): 27.5 µM; growth at 0.01 µM [5]: 96%; GI50 ([6]; read-out: GI50): 7.04 µM; CC50 [6, 41]: 54.7 µM; TGI ([6]; read-out: TGI): 22.1 µM; GI50 ([6]; read-out: pGI50 (converted)): 7.08 µM; CC50 [6, 42]: 55 µM; TGI ([6]; read-out: pTGI (converted)): 21.9 µM; growth at 100 µM [7]: -61%; growth at 0.01 µM [8]: 92%; growth at 0.01 µM [9]: 93%; growth at 0.1 µM [10]: 95%; growth at 1 µM [11]: 79%; growth at 100 µM [12]: -43%; GI50 ([13]; read-out: GI50): 2930 nM; CC50 [13, 41]: 58.5 µM; TGI ([13]; read-out: TGI): 20.4 µM; GI50 ([13]; read-out: pGI50 (converted)): 2950 nM; CC50 [13, 42]: 58.9 µM; TGI ([13]; read-out: pTGI (converted)): 20.4 µM; growth at 0.1 µM [14]: 96%; growth at 100 µM [15]: -35%; growth at 0.01 µM [16]: 94%; growth at 0.1 µM [17]: 90%; GI50 ([18]; read-out: GI50): 6.35 µM; CC50 [18, 41]: > 100 µM; TGI ([18]; read-out: TGI): 29.4 µM; GI50 ([18]; read-out: pGI50 (converted)): 6.31 µM; CC50 [18, 42]: > 100 µM; TGI ([18]; read-out: pTGI (converted)): 29.5 µM; GI50 ([19]; read-out: GI50): 5.69 µM; CC50 [19, 41]: > 100 µM; TGI ([19]; read-out: TGI): 52.6 µM; GI50 ([19]; read-out: pGI50 (converted)): 5.75 µM; CC50 [19, 42]: > 100 µM; TGI ([19]; read-out: pTGI (converted)): 52.5 µM; growth at 100 µM [20]: -56%; growth at 1 µM [21]: 95%; growth at 1 µM [22]: 96%; GI50 ([23]; read-out: GI50): 3.04 µM; CC50 [23, 41]: > 100 µM; TGI ([23]; read-out: TGI): 12.3 µM; GI50 ([23]; read-out: pGI50 (converted)): 3.02 µM; CC50 [23, 42]: > 100 µM; TGI ([23]; read-out: pTGI (converted)): 12.3 µM; growth at 1 µM [24]: 86%; growth at 100 µM [25]: -87%; growth at 0.1 µM [26]: 93%; growth at 0.01 µM [27]: 107%; growth at 0.1 µM [28]: 93%; GI50 ([29]; read-out: GI50): 2580 nM; CC50 [29, 41]: 35.6 µM; TGI ([29]; read-out: TGI): 7.69 µM; GI50 ([29]; read-out: pGI50 (converted)): 2570 nM; CC50 [29, 42]: 35.5 µM; TGI ([29]; read-out: pTGI (converted)): 7.76 µM; growth at 0.01 µM [30]: 107%; growth at 100 µM [31]: -71%; growth at 1 µM [32]: 88%; GI50 ([33]; read-out: GI50): 6.61 µM; CC50 [33, 41]: 72.1 µM; TGI ([33]; read-out: TGI): 24.2 µM; GI50 ([33]; read-out: pGI50 (converted)): 6.61 µM; CC50 [33, 42]: 72.4 µM; TGI ([33]; read-out: pTGI (converted)): 24 µM; growth at 100 µM [34]: -26%; growth at 1 µM [35]: 78%; growth at 0.1 µM [36]: 93%; growth at 0.1 µM [37]: 95%; growth at 1 µM [38]: 89%; GI50 ([39]; read-out: GI50): 438 nM; CC50 [39, 41]: 82.4 µM; TGI ([39]; read-out: TGI): 14.9 µM; GI50 ([39]; read-out: pGI50 (converted)): 437 nM; CC50 [39, 42]: 83.2 µM; TGI ([39]; read-out: pTGI (converted)): 14.8 µM; growth at 0.1 µM [40]: 95%
